Ki and inhibition data for 4 compounds are collected here from paper PMC5830761 (Royal Society Open Science, 2018).

Structures are written as SMILES.

One assay deals with T1, human A1 receptors (Homo sapiens, UniProt P30542).
T1 sequence (P30542 1-326): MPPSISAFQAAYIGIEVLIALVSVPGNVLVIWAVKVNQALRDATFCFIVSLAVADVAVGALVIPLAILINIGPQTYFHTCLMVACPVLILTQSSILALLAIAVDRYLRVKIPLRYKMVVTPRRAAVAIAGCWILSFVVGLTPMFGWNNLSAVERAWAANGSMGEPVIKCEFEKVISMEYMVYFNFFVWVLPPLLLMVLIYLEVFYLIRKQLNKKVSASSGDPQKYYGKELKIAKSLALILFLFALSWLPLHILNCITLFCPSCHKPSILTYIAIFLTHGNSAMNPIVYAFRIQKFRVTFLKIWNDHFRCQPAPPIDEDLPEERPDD
The assay is described as follows: Radioligand binding to human A1 AR ([3H]CCPA), CHO cell membranes. Conditions: mean ± SEM; for Ki: CHO cells expressing human A1AR, radioligand [3H]CCPA, read-out: Ki hA1AR. As for the experimental part:
(§1) CHO (Chinese hamster ovary) cells expressing the recombinant human ARs^2 were cultured in DMEM supplemented with 10% fetal bovine serum, 100 units/mL penicillin, 100 µg/mL streptomycin, 2 µmol/mL glutamine, and 800 µg/mL geneticin. Cells were harvested by trypsinization. After homogenization and suspension, cells were centrifuged at 500 g for 10 min, and the pellet was resuspended in 50 mM Tris-HCl buffer (pH 8.0) containing 10 mM MgCl2, 1 mM EDTA, and 0.1 mg/mL CHAPS. The suspension was homogenized with an electric homogenizer for 10 s and was then recentrifuged at 20000 g for 20 min at 4 °C. […] The protein concentration was measured using the Bradford assay.^3
(§2) Human A1 and A2A receptors: For binding to human A1 receptors, [^3H]CCPA (1 nM) was incubated with membranes (40 µg/tube) from CHO cells stably expressing human A1 receptors at 25 °C for 60 min in 50 mM Tris-HCl buffer (pH 7.4; MgCl2, 10 mM) in a total assay volume of 200 µL. Nonspecific binding was determined using 10 µM of CPA. For human A2A receptor binding, membranes (20 µg/tube) from HEK-293 cells stably expressing human A2A receptors were incubated with 15 nM [^3H]CGS21680 at 25 °C for 60 min in 200 µL of 50 mM Tris-HCl, pH 7.4, containing 10 mM MgCl2. NECA (10 µM) was used to define nonspecific binding. Reaction was terminated by filtration with GF/B filters.

In the next assay the target is T2, human A3 receptor (Homo sapiens, UniProt P0DMS8).
T2 construct: expressed in transfected cells; host or cells: CHO cells, membranes
T2 sequence (P0DMS8 1-318): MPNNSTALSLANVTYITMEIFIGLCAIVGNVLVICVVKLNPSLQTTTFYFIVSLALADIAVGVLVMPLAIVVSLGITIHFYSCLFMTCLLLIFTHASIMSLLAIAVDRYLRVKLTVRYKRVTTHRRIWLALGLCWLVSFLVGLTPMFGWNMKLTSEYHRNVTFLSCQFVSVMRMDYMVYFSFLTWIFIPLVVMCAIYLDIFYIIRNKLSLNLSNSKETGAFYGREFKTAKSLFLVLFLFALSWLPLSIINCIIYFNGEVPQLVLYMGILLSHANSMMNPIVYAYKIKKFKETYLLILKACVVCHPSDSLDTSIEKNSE
The assay is described as follows: Competitive radioligand binding to human A3 AR ([125I]I-AB-MECA), CHO cell membranes. Conditions: CHO cells expressing human A3AR; radioligand [125I]I-AB-MECA; mean ± SEM; read-out: Ki hA3AR. Here is the method:
CHO (Chinese hamster ovary) cells expressing the recombinant human ARs^2 were cultured in DMEM supplemented with 10% fetal bovine serum, 100 units/mL penicillin, 100 µg/mL streptomycin, 2 µmol/mL glutamine, and 800 µg/mL geneticin. Cells were harvested by trypsinization. After homogenization and suspension, cells were centrifuged at 500 g for 10 min, and the pellet was resuspended in 50 mM Tris-HCl buffer (pH 8.0) containing 10 mM MgCl2, 1 mM EDTA, and 0.1 mg/mL CHAPS. […] The protein concentration was measured using the Bradford assay.^3
Human A3 receptor: For competitive binding assay, each tube contained 100 µL of membrane suspension (20 µg protein), 50 µL of [^125I]I-AB-MECA (0.5 nM), and 50 µL of increasing concentrations of the nucleoside derivative in Tris-HCl buffer (50 mM, pH 7.4) containing 10 mM MgCl2 and 1 mM EDTA. Nonspecific binding was determined using 10 µM of Cl-IB-MECA in the buffer. The mixtures were incubated at 25 °C for 60 min. Binding reactions were terminated by filtration through Whatman GF/B filters under reduced pressure using a MT-24 cell harvester (Brandell, Gaithersburgh, MD). Filters were washed three times with 9 mL of ice-cold buffer. Radioactivity was determined in a Beckman 5500B γ-counter.

The next assay concerns the target T3, human A2A receptors (Homo sapiens, UniProt P29274).
T3 construct: expressed in transfected cells
Put plainly: Radioligand binding to human A2A AR ([3H]CGS21680). Conditions: cells expressing human A2AAR; radioligand [3H]CGS21680; mean ± SEM; read-out: Ki hA2AAR. Here is the method: as §1, §2

T3 sequence (P29274 whole entry): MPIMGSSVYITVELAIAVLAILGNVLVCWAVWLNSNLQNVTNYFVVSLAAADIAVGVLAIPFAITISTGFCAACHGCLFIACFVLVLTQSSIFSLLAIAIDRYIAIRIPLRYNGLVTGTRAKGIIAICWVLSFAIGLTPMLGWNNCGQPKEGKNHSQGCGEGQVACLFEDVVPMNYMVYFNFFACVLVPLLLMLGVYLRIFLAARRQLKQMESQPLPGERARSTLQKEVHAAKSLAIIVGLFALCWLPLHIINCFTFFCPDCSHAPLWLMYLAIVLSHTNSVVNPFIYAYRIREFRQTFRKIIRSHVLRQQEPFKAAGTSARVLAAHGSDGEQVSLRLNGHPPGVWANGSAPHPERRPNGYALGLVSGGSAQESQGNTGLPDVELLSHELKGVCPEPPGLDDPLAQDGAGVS

By Ki is commonly meant a measure of affinity in units of concentration, obtained from inhibition or displacement. As for `Nc1nc(OCCc2cn(Cc3ccccc3)c3cc(Br)ccc23)nc2c1ncn2[C@@H]1O[C@H](CO)[C@@H](O)[C@H]1O` [compound 10], the inhibitory constant (Ki) on human A1 receptors was 217 ± 57 nM; on human A3 receptor, 532 ± 144 nM; at human A2A receptors, 380 ± 81 nM.

In the case of `Cn1cc(CCCOc2nc(N)c3ncn([C@@H]4O[C@H](CO)[C@@H](O)[C@H]4O)c3n2)c2ccc(Br)cc21` [compound 13, 2-(6"-Bromo-1"-Methyl-3"-indolylpropoxy)adenosine], the Ki worked out at 230 ± 26 nM at human A1 receptors, 177 ± 43 nM at human A3 receptor and 262 ± 192 nM at human A2A receptors.

What is called inhibition is the share of the control response that was lost under treatment. Turning to `Cn1cc(CCOc2nc(N)c3ncn([C@@H]4O[C@H](CO)[C@@H](O)[C@H]4O)c3n2)c2ccc(Br)cc21` [compound 9], on human A1 receptors (at 10 µM, weak binding, corresponding to IC50 ≥ 10 µM, [3H]CCPA, read-out: % inhibition at 10 µM hA1AR), the inhibition at 10 µM was 47%. Also, the values for the Ki on human A3 receptor and on human A2A receptors were 679 ± 149 nM and 2770 ± 500 nM, respectively.

Consider `Nc1nc(OCCCc2cn(Cc3ccccc3)c3cc(Br)ccc23)nc2c1ncn2[C@@H]1O[C@H](CO)[C@@H](O)[C@H]1O` [compound 14, 2-(6"-Bromo-1"-Benzyl-3"-indolylpropoxy)adenosine], for which the results for the Ki on human A1 receptors, at human A3 receptor and on human A2A receptors were 152 ± 49 nM, 491 ± 143 nM and 371 ± 79 nM, respectively.
